In patent US20230255877A1, “COMPOSITION FOR IMPROVING SKIN COMPRISING STEAMED CITRUS PEEL EXTRACT AS ACTIVE INGREDIENT” (LG HOUSEHOLD & HEALTH CARE LTD., priority 2022, published 2023):

Tests used:
Raw264.7 cells = assay: NO production inhibition in lipopolysaccharide-treated Raw264.7 cells (GRIESS reagent); assay type: cell-based
Experimental: In order to confirm the anti-inflammatory effect of the citrus peel extracts, NO production inhibition rate was measured after the extracts were untreated, steamed for 30 minutes, or steamed for 8 hours. In order to culture Raw264.7 cells, a mixture of DMEM (Dulbecco's Modified Eagle's Medium) and FBS (Fetal Bovine Serum) was used as a basic medium, and the Raw264.7 cells were seeded into a 24-well plate at a concentration of 1 to 2×10^5 cells/mL and cultured for 24 hours. The medium was removed and the cells were starvated in serum-free medium for 12 hours, and thereafter, the DMSO lysate of each extract was treated so that the concentration was 200 ppm, and after 30 minutes, lipopolysaccharide was added at a concentration of 500 ng/ml and cultured for 18 hours. L-NMMA, a positive control, was treated at 20 ppm. After completion of the culture, the supernatant was taken and transferred to a 96-well plate, reacted at room temperature by adding the GRIESS reagent, and the absorbance at 540 nm was measured using an ELISA reader. The amount of NO inhibited compared to the control group was calculated as NO production inhibition rate (%), and the average value was calculated after the experiment was performed three times.
In order to identify the cause of the change in anti-inflammatory efficacy among the steamed citrus peel extract components, the NO production inhibition rates of hesperidin, a flavonoid glycone, and hesperetin, a a flavonoid aglycone, were compared (Table 13)

human dermal fibroblasts = assay: Collagen synthesis promotion in human dermal fibroblasts (procollagen 1α1 ELISA); assay type: cell-based
Experimental: In order to confirm the collagen synthesis promoting effect of the citrus peel extracts, the amount of additional collagen production was measured after the extracts were untreated, steamed for 30 minutes, or steamed for 8 hours. In order to culture human dermal fibroblasts, a mixture of DMEM and FBS was used as a basic medium, and the skin fibroblasts were seeded into a 48-well plate at a concentration of 2 to 5×10^4 cells/mL and cultured for 24 hours. The medium was removed, and the DMSO lysate of each extract was treated in serum-free medium so that the concentration was 100 ppm, and cultured for 24 hours. A positive control that promotes collagen synthesis was treated with TGF-β to a concentration of 5 ppb. The cell culture solution was taken and the synthesized collagen was measured using the Human procollagen 1α1 duoset ELISA Kit (R&D Systems) and ELISA reader. A calibration curve was prepared by measuring the isolated and purified collagen at concentrations of 0.25, 0.5, 1, 2, 4, and 8 ng/mL, and based on the results, the amount of collagen (Type I collagen) produced in the DMSO lysate of the citrus peel extracts was calculated. The amount of collagen produced compared to the control group (DMSO) was calculated as collagen production rate (%), and the average value was calculated after the experiment was performed three times (Table 14).
In order to identify the cause of the change in collagen synthesis promoting efficacy among the steamed citrus peel extract components, the amount of additional collagen production of hesperidin, a flavonoid glycone, and hesperetin, a flavonoid aglycone, was compared (Table 15).

Compound: COc1ccc([C@@H]2CC(=O)c3c(O)cc(O)cc3O2)cc1O [Hesperetin, hesperetin]
- inhibition at 0.1 ppm (Raw264.7 cells; Mus musculus, RAW264.7, 0.1 ppm, read-out: NO Production Inhibition Rate): -3%
- inhibition at 1 ppm (Raw264.7 cells; Mus musculus, RAW264.7, 1 ppm, read-out: NO Production Inhibition Rate): 2.6%
- inhibition at 10 ppm (Raw264.7 cells; Mus musculus, RAW264.7, 10 ppm, read-out: NO Production Inhibition Rate): 8.1%
- inhibition at 20 ppm (Raw264.7 cells; Mus musculus, RAW264.7, 20 ppm, read-out: NO Production Inhibition Rate): 35.6%
- Additional Collagen Production Rate (human dermal fibroblasts; 0.1 ppm): 17.0%
- Additional Collagen Production Rate (human dermal fibroblasts; 1 ppm): 16.8%

Compound: COc1ccc([C@@H]2CC(=O)c3c(O)cc(O[C@@H]4O[C@H](CO[C@@H]5O[C@@H](C)[C@H](O)[C@@H](O)[C@H]5O)[C@@H](O)[C@H](O)[C@H]4O)cc3O2)cc1O [Hesperidin, hesperidin]
- NO Production Inhibition Rate (Raw264.7 cells; 0.1 ppm): −5.5%
- NO Production Inhibition Rate (Raw264.7 cells; 1 ppm): 0.6%
- NO Production Inhibition Rate (Raw264.7 cells; 10 ppm): 1.8%
- NO Production Inhibition Rate (Raw264.7 cells; 20 ppm): 2.4%
- Additional Collagen Production Rate (human dermal fibroblasts; 0.1 ppm): −0.2%
- Additional Collagen Production Rate (human dermal fibroblasts; 1 ppm): 0.2%

Compound: CNC(=N)NCCC[C@H](N)C(=O)O [L-NMMA]
- NO Production Inhibition Rate (Raw264.7 cells; positive control, 20 ppm, Table 12): 55.1%
- NO Production Inhibition Rate (Raw264.7 cells; positive control, Table 13): 51.3%

Compound: TGF-β: positive control that promotes collagen synthesis
- Additional Collagen Production Rate (human dermal fibroblasts; positive control, 5 ppb, Table 14): 25.2%
- Additional Collagen Production Rate (human dermal fibroblasts; positive control, Table 15): 23.7%
